Laboratory results: patent US20260250318A1, “COMPOSITIONS AND METHODS FOR CROSSING THE BLOOD BRAIN BARRIER” (VOYAGER THERAPEUTICS, INC., priority 2022, published 2026)

What was measured:
[1] = system: brains, heart, liver, muscle, and DRG of the NHPs; test: Maturation of TTM-001 and TTM-002 capsids, NGS enrichment in NHP tissues; assay type: in vivo; conditions: relative to AAV9 control
Outline: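 Variants carry mutations within and flanking the loop IV peptide insert: positions 450–466 were triplet-randomized, while positions 449–466 received low-frequency point mutations. The combined pool went into two NHPs, and each peptide was scored by NGS enrichment ratio against AAV9.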

brain = test: Matured TTM-001 and TTM-002 variants, NGS enrichment in mouse brain; assay type: in vivo, mice; conditions: relative to AAV9 control
[2] = NGS fold-enrichment of RNA, NHP brain
[3] = NGS fold-enrichment, NHP liver DNA
[4] = NGS fold-enrichment, NHP liver RNA
[5] = NGS fold-enrichment, NHP muscle
[6] = NGS fold-enrichment, mouse brain
[7] = NGS fold-enrichment of matured AAV capsid variants, NHP brain, RNA
[8] = NGS fold-enrichment, DRG of NHPs
[9] = NGS fold-enrichment, RNA, brain of NHPs
[10] = NGS fold-enrichment, heart of NHPs
[11] = NGS fold-enrichment, liver DNA of NHPs
[12] = NGS fold-enrichment, liver RNA of NHPs
[13] = NGS fold-enrichment, muscle of NHPs
[14] = NGS fold-enrichment, brain of mice

Row | Sequence | Fold Enrichment relative to AAV9, Brain (NHP) [1, 2] [fold] | Fold Enrichment relative to AAV9, DRG (NHP) ([1]; NGS fold-enrichment, NHP DRG) [fold] | Fold Enrichment relative to AAV9, Heart (NHP) ([1]; NGS fold-enrichment, NHP heart) [fold] | Fold Enrichment relative to AAV9, Liver DNA (NHP) [1, 3] [fold] | Fold Enrichment relative to AAV9, Liver RNA (NHP) [1, 4] [fold] | Fold Enrichment relative to AAV9, Muscle (NHP) [1, 5] [fold] | Fold Enrichment relative to AAV9, Brain (Mouse) (brain; [6]) [fold] | Fold Enrichment relative to AAV9, Brain (NHP) [1, 7] [fold] | Fold Enrichment relative to AAV9, DRG (NHP) ([1]; NHP DRG) [fold] | Fold Enrichment relative to AAV9, Heart (NHP) ([1]; NHP heart) [fold] | Fold Enrichment relative to AAV9, Liver DNA (NHP) ([1]; NHP liver, DNA) [fold] | Fold Enrichment relative to AAV9, Liver RNA (NHP) ([1]; NHP liver, RNA) [fold] | Fold Enrichment relative to AAV9, Muscle (NHP) ([1]; NHP muscle) [fold] | Fold Enrichment relative to AAV9, Brain (Mouse) (brain; mouse brain) [fold] | other results
1 | KTIYGHDSPHKSVQNQLT | 92.381 | 0.000 | 0.043 | 0.016 | 0.103 | 0.000 | 12.323 | – | – | – | – | – | – | – | –
2 | KTINGHDSPHKTGQNQQK | 77.562 | 0.000 | 1.056 | 0.000 | 0.000 | 0.000 | 6.379 | – | – | – | – | – | – | – | –
3 | KTINGGGSPHSKAQNPQA | – | – | – | – | – | – | – | 51.574 | 0.000 | 0.000 | 0.000 | 0.192 | 0.000 | 102.792 | –
4 | KTIDGHDSPHKSGQNQHA | 91.058 | 0.000 | 0.082 | 0.000 | 0.000 | 0.000 | 10.781 | – | – | – | – | – | – | – | –
5 | KTVIGSGSPHSKALNQQT | – | – | – | – | – | – | – | – | – | – | – | – | – | – | Fold Enrichment relative to AAV9, DRG (NHP) [1, 8]: 0.000 fold; Fold Enrichment relative to AAV9, Brain (NHP) [1, 9]: 62.358 fold; Fold Enrichment relative to AAV9, Heart (NHP) [1, 10]: 0.310 fold; Fold Enrichment relative to AAV9, Liver DNA (NHP) [1, 11]: 0.245 fold; Fold Enrichment relative to AAV9, Liver RNA (NHP) [1, 12]: 0.062 fold; Fold Enrichment relative to AAV9, Muscle (NHP) [1, 13]: 0.000 fold; Fold Enrichment relative to AAV9, Brain (Mouse) (brain; [14]): 60.369 fold
6 | KTINGSGSSHSKAQNQQT | – | – | – | – | – | – | – | 54.292 | 1.709 | 1.870 | 0.458 | 1.075 | 1.287 | 67.731 | –
7 | KTINGSGSPHSKAQAKLT | – | – | – | – | – | – | – | – | – | – | – | – | – | – | Fold Enrichment relative to AAV9, DRG (NHP) [1, 8]: 0.000 fold; Fold Enrichment relative to AAV9, Brain (NHP) [1, 9]: 71.154 fold; Fold Enrichment relative to AAV9, Heart (NHP) [1, 10]: 0.273 fold; Fold Enrichment relative to AAV9, Liver DNA (NHP) [1, 11]: 0.777 fold; Fold Enrichment relative to AAV9, Liver RNA (NHP) [1, 12]: 1.591 fold; Fold Enrichment relative to AAV9, Muscle (NHP) [1, 13]: 0.017 fold; Fold Enrichment relative to AAV9, Brain (Mouse) (brain; [14]): 130.132 fold
8 | KTINGSGSPHSKAPSLQT | – | – | – | – | – | – | – | 52.137 | 0.041 | 1.614 | 0.222 | 0.902 | 0.002 | 70.363 | –
9 | KTEGLSGSPHSKAQNQQT | – | – | – | – | – | – | – | 52.891 | 0.000 | 0.000 | 0.155 | 0.104 | 0.020 | 104.529 | –
10 | KTLNGNGSPHSKAQNLQT | – | – | – | – | – | – | – | 54.458 | 0.668 | 0.000 | 0.172 | 0.161 | 0.000 | 159.134 | –
11 | KAINGHDNPHKSGQNQQT | 88.906 | 0.297 | 0.721 | 0.130 | 0.222 | 0.482 | 9.702 | – | – | – | – | – | – | – | –
